According to publication PMC8623418, “Novel Multitarget Hydroxamic Acids with a Natural Origin CAP Group against Alzheimer’s Disease: Synthesis, Docking and Biological Evaluation” (Pharmaceutics, 2021):

Key:
5xFAD transgenic mice = experiment: Morris Water Maze Test in 5xFAD mice; assay type: in vivo; details: for Mean latency time to hidden platform, first training day / Mean latency time to hidden platform, fourth training day: 15 mg/kg i.p. for 20 days, mean ± SEM; for Mean latency time to hidden platform, first training day: day 1; for Mean latency time to hidden platform, fourth training day: day 4
Description: All animal procedures were approved by the Animal Care and Use Committee of IPAC RAS. For in vivo studies, 11-month-old male mice of the 5xFAD line (Tg(APPSwFlLon,PSEN1*M146L*L286V) 6799Vas/J) were used. The animals were housed in cages with free access to water and food in a room with a 12 h/12 h light–dark cycle, at a temperature of 23 ± 1 °C and humidity of 50 ± 5%. Before the series of experiments, animals were randomly divided into four groups (n = 8 per group): (1) wild-type group (C57BL6/j mouse line); (2) 5xFAD group; (3) 5xFAD + 15 group; and (4) 5xFAD + 25 group. Both compounds 15 and 25 were dissolved in saline solution and DMSO (10%) immediately before use and intraperitoneally administered to animals for 20 days at a dose of 15 mg/kg body weight for experiments. In the control group, the vehicle solution (saline and DMSO (10%), intraperitoneal) was administered with the same time schedule. The Morris Water Maze Test was performed based on the Morris paradigm, 1985, modified. This test allowed us to evaluate spatial learning and memory formation in mice. The experimental apparatus consisted of a circular pool (diameter, 150 cm; height, 60 cm; OpenScience, Russia) containing water at 22 ± 1 °C. The lighting conditions were as follows: dark side of the pool was 50 lx; bright side was 75 lx. The pool was equally divided into quadrants. A platform (diameter, 10 cm) was positioned inside the reservoir, placed 1 cm below the water surface in the target quadrant of the maze. The platform and pool were white with anti-glare coating, which, together with shadowless lamp lighting, created the effect of an invisible platform that was hidden under the water. As visual cues, we used 4 figures (OpenScience, Moscow, Russia) fixed on the racks and located at the pool sides. The test is based on two phases: the acquisition phase (training days) and the retention phase (probe trial) (Figure 7A). Initially, the training session was performed, during which each animal was placed into the water facing the pool wall. After placing, each animal was given 60 s to find and mount onto the hidden platform. […] Each mouse received training sessions, and the test was repeated four times for four consecutive days in acquisition training (sum 16 trials for training). All 4 start positions for each day (north, south, east, west) were deliberately randomized. The probe trial was performed on the 5th day after the training phase: there were no platform and the mice were given 90 s for swimming. The criteria for the effectiveness of learning and memory formation were the time spent in the target and wrong quadrants, the latency period, and the number of entries to the platform area.

HEK 293 cells = experiment: MTT cell viability, HEK 293; assay type: cell-based; details: Homo sapiens, HEK293; HEK-293, MTT test
Description: The effect of the hydroxamic acids on the viability of cells obtained from human embryonic kidneys, HEK 293, as well as the native form of human neuroblastoma, SH-SY5Y, was evaluated in the MTT test. Using a multifunctional flatbed analyzer, Cytation™3 (BioTek Instruments, Inc., Winooski, VT, USA), the optical density was determined at a wavelength of 530 nm. Based on the dose-dependent curves, the concentration values leading to 50% inhibition of cell population growth (IC50) were calculated.
Due to the fact that most compounds of the class of hydroxamic acids have high cytotoxic activity and are mainly used as anticancer drugs, their use as neuroprotective drugs is limited. Since the goal of our work was to search for agents for the pharmacological correction of neurodegenerative diseases, a necessary part of the biological activity study of the synthesized hydroxamic acids was to determine their effect on the survival of cell cultures. In our work, we used neuron-like neuroblastoma cells SH-SY5Y and a healthy cell line isolated from the human embryonic kidney, HEK 293.

[1] = system: lipid peroxidation (LPO) of rat brain homogenate; experiment: Lipid peroxidation (LPO) of rat brain homogenate, TBARS test; assay type: biochemical; details: substances at 100 μM, mean ± SEM; for % of Activity, Inhibition of LPO, Fe (II): Fe (II)-induced; for % of Activity, Inhibition of LPO, t-BHP: t-BHP-induced
Description: To obtain the brain homogenate, rats preliminarily anesthetized with CO2 were decapitated with a guillotine. The brain was homogenized in a buffer containing KCl (120 mM) and HEPES (20 mM), pH = 7.4 at 4 °C, and centrifuged at 1500 rpm to obtain a supernatant. The protein was quantified according to the standard microbiuret method.
To investigate the effect of the compounds on lipid peroxidation (LPO) of rat brain homogenate, we used the modified version of the TBARS test, which is based on the reaction of 2-thiobarbituric acid with the end LPO product—malonic dialdehyde (MDA). The plate well, according to the experimental scheme, contained the compounds under study (100 μM), rat brain homogenate (2 mg/mL), as well as ferrous iron ions ([…]) at a concentration of 500 μM and 1.6 mM tert-butyl hydroxyperoxide as an initiator. After 30 min of incubation at 37 °C, TBARS reagent was added to all samples, incubated for 90 min at 90 °C, and centrifuged at 6000 rpm for 15 min. The optical density of the selected supernatant was measured on a Victor 3 plate reader (Perkin Elmer) at λ = 540 nm.
A rat brain homogenate preparation containing fragments of cell membranes was used as a model system to investigate the antioxidant activity of the hydroxamic acids. To initiate the process of lipid peroxidation, ferrous ions were used to trigger the Fenton reaction, during which the iron valence changes and a highly reactive hydroxyl radical is formed, and tert-butyl hydroxyperoxide as a direct source of free radicals.

[2] = DPPH test of antiradical activity; details: substances at 100 μM, mean ± SEM
Description: The DPPH test was used to examine antiradical activity based on the ability of a stable chromogen radical of 2,2-diphenyl-1-picrylhydrazyl (DPPH) to remove a hydrogen atom, which is accompanied by a change in the absorption maximum in the electronic absorption spectra. The amount of reduced DPPH was measured using a Cytation ™ 3 multifunctional plate analyzer (BioTek Instruments, Inc., Winooski, VT, USA) at a wavelength of 517 nm.
The antiradical activity of the test compounds was evaluated by the DPPH test, based on the ability of antioxidants to donate an electron to the stable chromogen radical DPPH, converting it into a nonradical form and neutralizing its activity. […] The chromogenic free radical DPPH used in this test has a large size, and substances even with a similar chemical structure may have different antiradical properties due to spatially difficult access.

[3] = 5th day, versus untreated 5xFAD

| SMILES | Mean latency time to hidden platform, first training day (5xFAD transgenic mice) [s] | Mean latency time to hidden platform, fourth training day (5xFAD transgenic mice) [s] | Probe trial: entries to the platform zone (5xFAD transgenic mice; [3]) | Probe trial: latency for entering the platform zone (5xFAD transgenic mice; [3]) | Platform search strategies (egocentric to allocentric navigation) (5xFAD transgenic mice; training phase, 15 mg/kg i.p.) | IC50 (HEK 293 cells) [µM] | % of Activity, Inhibition of LPO, Fe (II) [1] [%] | % of Activity, Inhibition of LPO, t-BHP [1] [%] | % of Activity, Antiradical Activity [2] [%] | Probe trial: time spent in the wrong quadrant (5xFAD transgenic mice; [3]) |
| --- | --- | --- | --- | --- | --- | --- | --- | --- | --- | --- |
| O=C(CCCCCCC(=O)NC1C2CC3CC(C2)CC1C3)NO (stereo not drawn) [compound 15, N^1-(Adamant-2-yl)-N^8-Hydroxyoctanediamide] | 53.76 ± 2.79 | 34.28 ± 4.32 | increased entries to the platform | significantly reduced the latency for entering the platform zone | normalization of this situation and the successful formation of the allocentric cognitive map | > 100 | 21.52 ± 2.15 | 43.24 ± 1.28 | 19.70 ± 1.34 |  |
| O=C(/C=C/c1ccc(C(=O)NO)cc1)NC1C2CC3CC(C2)CC1C3 (stereo not drawn) [compound 25, 4-((E)-3-((-Adamantan-2-yl)amino)-3-Oxoprop-1-en-1-yl)-N-Hydroxybenzamide] | 53.46 ± 2.75 | 38.63 ± 3.01 | improvement in these spatial memory parameters was also observed | improvement in these spatial memory parameters was also observed |  | > 100 | 19.81 ± 4.83 | 44.59 ± 1.73 | 43.34 ± 1.42 | significant differences were found in the time spent in the wrong quadrant |
